In ChEMBL document CHEMBL1127701, “Antineoplastic agents. 278. Isolation and structure of axinastatins 2 and 3 from a western Caroline Island marine sponge” (1994) one finds GI50 and EC50 data, which are given here for 2 compounds.

For orientation: GI50 means the concentration that inhibits growth by half.

Holding throughout (type): functional
For one test, the system named is SF-295. As to the kind of experiment: Tested for cytostatic activity against CNS SF-295 cell line. The conditions noted are these: Homo sapiens.
The next test relates to P388. As to the kind of experiment: Tested for in vitro cytotoxicity against the murine leukemia P388 cell line. The conditions noted are these: Mus musculus, read-out: ED50 (the source's name).
The subject of another test is KM-20L2. In words: Tested for cytostatic activity against colon KM20L2 cell line. The conditions noted are these: Homo sapiens.
A further test deals with SK-MEL-5. In words: Tested for cytostatic activity against melanoma SK-MEL-5 cell line. The conditions noted are these: Homo sapiens.
In the next test the test system is A498. In words: Tested for cytostatic activity against renal A498 cell line. The conditions noted are these: Homo sapiens.
Another test concerns OVCAR-3. As to the kind of experiment: Tested for cytostatic activity against ovarian OVCAR-3 cell line. The conditions noted are these: Homo sapiens.
The next test deals with NCI-H460. In words: Tested for cytostatic activity against lung-NSC […] cell line. The conditions noted are these: Homo sapiens.

≈ marks a conversion by molar mass, not a printed value. Where a SMILES comes first, the peptide text is derived from it.

Turning to `CC(C)C[C@@H]1NC(=O)[C@H](C(C)C)NC(=O)[C@H](Cc2ccccc2)NC(=O)[C@@H]2CCCN2C(=O)[C@H](CC(N)=O)NC(=O)[C@H](C(C)C)NC(=O)[C@@H]2CCCN2C1=O` (cyclo(FVLPVNP)), the GI50 in the test with SF-295 came out at 0.35 µg/mL (≈ 0.456 µM); with KM-20L2, 0.23 µg/mL (≈ 0.3 µM); with SK-MEL-5, 0.068 µg/mL (≈ 0.0887 µM); with A498, 0.38 µg/mL (≈ 0.495 µM); in the test on OVCAR-3 it was 0.058 µg/mL (≈ 0.0756 µM); in the test on NCI-H460 it was 0.19 µg/mL (≈ 0.248 µM). The EC50 with P388 was determined as 0.02 µg/mL (≈ 0.0261 µM).
Turning to `CC[C@H](C)[C@@H]1NC(=O)[C@H](Cc2ccccc2)NC(=O)[C@@H]2CCCN2C(=O)[C@H](CC(N)=O)NC(=O)[C@H](C(C)C)NC(=O)[C@@H]2CCCN2C(=O)[C@H](CC(C)C)NC1=O` (cyclo(FILPVNP)), the GI50 in the test on SF-295 turned out to be 0.18 µg/mL (≈ 0.23 µM); in the test with KM-20L2 it was 0.055 µg/mL (≈ 0.0704 µM); with SK-MEL-5, 0.012 µg/mL (≈ 0.0154 µM); in the test with A498, 0.11 µg/mL (≈ 0.141 µM); in the test on OVCAR-3 it was 0.0072 µg/mL (≈ 0.00922 µM); in the test with NCI-H460, 0.033 µg/mL (≈ 0.0423 µM).
